The results in this text go back to patent publication US8426370B2, “Diaryl hepatonoid-based compounds and use thereof” (priority 2008, dated 2013).

Like-named read-outs stand apart in the source and are kept apart here.

Data set [1] has as its system avian influenza virus KBNP-0028 (KCTC 10866BP). Type of data set: cell-based, A/chicken/Korea/SNU0028/2000(H9N2).
Data set [2] has as its system CEF (chicken embryo fibroblasts).

Turning to `O=C(CCc1ccc(O)c(O)c1)C[C@H](CCc1ccc(O)c(O)c1)OC1OCC(O)C(O)C1OC(=O)/C=C/c1ccc(O)cc1` (stereo partly drawn) [12B-AJ-17A-1, (5S)-1,7-bis(3,4-dihydroxyphenyl)-3-heptanone-5-O-(2-coumaroyl)-β-D-xylopyranoside], in data set [1], the “antiviral activity (in words)” value was “had antiviral activity”. The “Number of wells wherein hemagglutination occurs (among 6 wells)” value in data set [1] (12.5 μg/mL), in data set [1] (25 μg/mL), in data set [1] (50 μg/mL) and in data set [1] (100 μg/mL) was 3 throughout. Further, the “cytotoxicity (in words)” value in data set [2] was “no cytotoxicity”.
